Article PMC5062169, “Structural basis for ligand recognition by a Cache chemosensory domain that mediates carboxylate sensing in Pseudomonas syringae” (Scientific Reports, 2016)

target: T1, PscD (PscD-SD, Cache sensor domain of chemoreceptor PscD) (Pseudomonas syringae, UniProt A0ABY1U976); parameters: fluorescence thermal shift (SYPRO Orange) screen of Biolog PM1/PM2 compounds, delta Tm; conditions: Biolog plate compound, exact concentration unknown; binder
T1 construct: gene CFBP3846_03581; sensor domain, Gln31-Trp188, N-terminal His6 tag
T1 sequence (A0ABY1U976 31-188): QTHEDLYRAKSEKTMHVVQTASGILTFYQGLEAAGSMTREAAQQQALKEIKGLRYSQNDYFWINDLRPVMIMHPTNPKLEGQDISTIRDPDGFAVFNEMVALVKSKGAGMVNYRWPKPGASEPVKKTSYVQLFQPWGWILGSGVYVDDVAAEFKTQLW
Text: We used high-throughput fluorescence thermal shift (FTS) assays (as described previously[16]) to screen for potential ligands of PscD-SD. FTS assays are based on the principle that ligands stabilise proteins upon binding, causing an increase in the melting temperature of the protein[22][23]. Binding can therefore be rapidly screened by measuring the difference in the temperature midpoint of unfolding (ΔTm) of a protein in the presence and absence of potential ligands. In our FTS assays, the Tm was measured by monitoring an increase in fluorescence of a dye with affinity for hydrophobic parts of the protein (i.e. SYPRO Orange), which are exposed as the protein unfolds. We screened the recombinant PscD-SD protein in FTS assays against the compounds in Biolog Phenotype Microarray (PM) plates 1 and 2 (Supplementary Tables 1 and 2). Each plate contains 95 different compounds (e.g., organic acids, sugars) and a water (no ligand) control. For use in FTS assays, the compounds were resuspended directly in water, thus generating a library of biologically relevant potential ligands. […] Fluorescent thermal shift (FTS) assays were conducted as reported previously. PscD-SD was screened for potential ligands against Biolog Phenotype Microarray (PM) plates 1 and 2 (Biolog, Hayward, CA, USA). For initial qualitative, high-throughput screening, ligands were prepared by dissolving Biolog PM compounds in 50 μL of water (each) to obtain a final concentration of approximately 10–20 mM (the exact concentrations vary from well-to-well). Screens were set up in Lightcycler 480 multiwell plates (Roche Diagnostics, Auckland, NZ) with 20 μM protein, a 5x concentration of SYPRO orange (Life Technologies, Carlsbad, CA, USA) and 5 μL of the test compound (i.e. resuspended Biolog ligands) added to each well. The plate was covered with Lightcycler 480 sealing film (Roche Diagnostics) and fluorescence signal was monitored as the temperature was increased from 20 °C to 80 °C at a rate of 1.2 °C.min^−1 in a Lightcycler 480 (Roche Diagnostics). Initial hits were further tested using known concentrations (0, 1, 2, 5 and 10 mM) of each potential ligand to confirm binding. The ligands were prepared as 10x stocks, 2 μL were added to each well, and the experiments were conducted as described above. The first derivative values (−dF/dt) from the raw fluorescence data were used to determine the melting temperature (Tm). Three biological replicates (from independently cultured and purified batches of protein) were performed for each plate screened.

Structure (SMILES)	Δ Tm [°C]
C[N+](C)(C)CC(O)CC(=O)[O-] (racemic) [D,L-Carnitine]	-0.02 ± 0.02
NCC(O)c1ccc(O)cc1 (racemic) [D,L-Octopamine]	0.03 ± 0.03
C[C@@H](O)[C@@H](C)O [2,3-Butanediol]	0.05 ± 0.03
O=CC[C@H](O)[C@H](O)CO [2-Deoxy-D-Ribose]	0.66 ± 0.05
O=C(O)c1ccccc1O [2-Hydroxy Benzoic Acid]	0.00 ± 0.04
O=C(O)c1ccc(O)cc1 [4-Hydroxy Benzoic Acid]	0.03 ± 0.03
O=C(CO)[C@@H](O)[C@H](O)[C@@H](O)C(=O)O [5-keto-D-Gluconic Acid]	0.10 ± 0.02
CC(N)=O [Acetamide]	0.00 ± 0.00
N#C[C@H](O[C@@H]1O[C@H](CO[C@@H]2O[C@H](CO)[C@@H](O)[C@H](O)[C@H]2O)[C@@H](O)[C@H](O)[C@H]1O)c1ccccc1 [Amygdalin]	0.03 ± 0.03
OC[C@H]1O[C@@H](Oc2ccc(O)cc2)[C@H](O)[C@@H](O)[C@@H]1O [Arbutin]	0.03 ± 0.05
C/C(=C/C(=O)O)C(=O)O [Citraconic Acid]	0.08 ± 0.00
CC(O)(CC(=O)O)C(=O)O (stereo not drawn) [Citramalic Acid]	0.03 ± 0.03
OC1OC[C@@H](O)[C@@H](O)[C@@H]1O (stereo partly drawn) [D-Arabinose]	0.05 ± 0.05
OC[C@@H](O)C(O)[C@H](O)CO [D-Arabitol]	0.00 ± 0.05
C[C@@H](O)[C@H](O)[C@H](O)[C@@H](O)C=O [D-Fucose]	0.10 ± 0.11
N[C@H]1C(O)O[C@H](CO)[C@@H](O)[C@@H]1O (stereo partly drawn) [D-Glucosamine]	-0.25 ± 0.03
COC(=O)[C@@H](C)O [D-Lactic Acid Methyl Ester]	0.00 ± 0.00
OC[C@H]1O[C@@](CO)(O[C@H]2O[C@H](CO)[C@@H](O)[C@H](O)[C@H]2O)[C@@H](O[C@H]2O[C@H](CO)[C@@H](O)[C@H](O)[C@H]2O)[C@@H]1O [D-Melezitose]	0.03 ± 0.03
OC[C@H]1O[C@H](OC[C@H]2O[C@H](O[C@]3(CO)O[C@H](CO)[C@@H](O)[C@@H]3O)[C@H](O)[C@@H](O)[C@@H]2O)[C@H](O)[C@@H](O)[C@H]1O [D-Raffinose]	0.00 ± 0.00
O=C(CO)[C@@H](O)[C@@H](O)[C@H](O)CO [D-Tagatose]	0.00 ± 0.04
O=C(CO)CO [Dihydroxyacetone]	0.35 ± 0.14

Structure (SMILES)	Δ Tm [°C]
NCC(=O)O [Glycine]	0.05 ± 0.05
O=C(O)[C@@H]1C[C@@H](O)CN1 [Hydroxy-L-Proline]	0.03 ± 0.05
C=C(CC(=O)O)C(=O)O [Itaconic Acid]	-0.05 ± 0.33
C[C@H](N)C(N)=O [L-Alaninamide]	0.08 ± 0.00
OC[C@H](O)C(O)[C@@H](O)CO [L-Arabitol]	0.03 ± 0.03
N=C(N)NCCC[C@H](N)C(=O)O [L-Arginine]	0.03 ± 0.03
N[C@@H](Cc1c[nH]cn1)C(=O)O [L-Histidine]	0.00 ± 0.04
N[C@@H](CCO)C(=O)O [L-Homoserine]	0.03 ± 0.03
CC[C@H](C)[C@H](N)C(=O)O [L-Isoleucine]	0.08 ± 0.00
CC(C)C[C@H](N)C(=O)O [L-Leucine]	0.05 ± 0.03
NCCCC[C@H](N)C(=O)O [L-Lysine]	0.10 ± 0.11
CSCC[C@H](N)C(=O)O [L-Methionine]	0.43 ± 0.39
N[C@@H](Cc1ccccc1)C(=O)O [L-Phenylalanine]	0.08 ± 0.00
O=C1CC[C@@H](C(=O)O)N1 [L-Pyroglutamic Acid]	0.08 ± 0.00
CC(C)[C@H](N)C(=O)O [L-Valine]	0.03 ± 0.03
OC[C@@H](O)[C@@H](O[C@@H]1O[C@H](CO)[C@H](O)[C@H](O)[C@H]1O)[C@H](O)[C@@H](O)CO [Lactitol]	0.08 ± 0.00
O=C(O)CC(=O)O [Malonic Acid]	0.08 ± 0.00
OC[C@@H](O)[C@@H](O[C@H]1O[C@H](CO)[C@@H](O)[C@H](O)[C@H]1O)[C@H](O)[C@@H](O)CO [Maltitol]	0.05 ± 0.05
O=C(O)[C@H](O)[C@@H](O)[C@H](O)[C@H](O)CO[C@H]1O[C@H](CO)[C@H](O)[C@H](O)[C@H]1O [Melibionic Acid]	0.08 ± 0.00
CC(=O)N[C@H]1C(O)O[C@H](CO)[C@H](O)[C@@H]1O (stereo partly drawn) [N-Acetyl-D-Galactosamine]	0.00 ± 0.00
CC(=O)N[C@@H](CO)[C@@H](O)[C@H](O)[C@H](O)CO [N-Acetyl-D-Glucosaminitol]	0.08 ± 0.00

Structure (SMILES)	Δ Tm [°C]
CC(=O)N[C@@H](CCC(=O)O)C(=O)O [N-Acetyl-L-Glutamic Acid]	0.08 ± 0.00
CC(=O)N[C@H]1[C@H]([C@H](O)[C@H](O)CO)OC(O)(C(=O)O)C[C@@H]1O (stereo partly drawn) [N-Acetyl-Neuraminic Acid]	0.08 ± 0.00
O=C(O)C(=O)O [Oxalic Acid]	0.03 ± 0.03
NCCCCN [Putrescine]	0.03 ± 0.05
O=C(O)[C@]1(O)C[C@@H](O)[C@@H](O)[C@H](O)C1 [Quinic Acid]	0.00 ± 0.04
OCc1ccccc1O[C@@H]1O[C@H](CO)[C@@H](O)[C@H](O)[C@H]1O [Salicin]	0.08 ± 0.00
O=C(O)CCCCCCCCC(=O)O [Sebacic Acid]	0.48 ± 0.09
CCC(C)N (stereo not drawn) [Sec-Butylamine]	0.00 ± 0.04
OC[C@@]12OC[C@@H](O1)[C@@H](O)[C@@H](O)[C@@H]2O [Sedoheptulosan]	0.08 ± 0.00
C/C=C/C=C/C(=O)O [Sorbic Acid]	0.65 ± 0.09
OC[C@H]1O[C@H](OC[C@H]2O[C@H](OC[C@H]3O[C@H](O[C@]4(CO)O[C@H](CO)[C@@H](O)[C@@H]4O)[C@H](O)[C@@H](O)[C@@H]3O)[C@H](O)[C@@H](O)[C@H]2O)[C@H](O)[C@@H](O)[C@H]1O [Stachyose]	0.05 ± 0.05
NC(=O)CCC(=O)O [Succinamic Acid]	0.18 ± 0.10
O=C(CO)[C@@H](O[C@H]1O[C@H](CO)[C@@H](O)[C@H](O)[C@H]1O)[C@H](O)[C@H](O)CO [Turanose]	0.03 ± 0.03
OC[C@H]1O[C@@H]2O[C@H]3[C@H](O)[C@@H](O)[C@@H](O[C@H]4[C@H](O)[C@@H](O)[C@@H](O[C@H]5[C@H](O)[C@@H](O)[C@@H](O[C@H]6[C@H](O)[C@@H](O)[C@@H](O[C@H]7[C@H](O)[C@@H](O)[C@@H](O[C@H]1[C@H](O)[C@H]2O)O[C@@H]7CO)O[C@@H]6CO)O[C@@H]5CO)O[C@@H]4CO)O[C@@H]3CO [α-Cyclodextrin]	0.08 ± 0.0
CO[C@H]1O[C@H](CO)[C@@H](O)[C@H](O)[C@@H]1O [α-Methyl-D-Mannoside]	0.05 ± 0.03
OC[C@H]1O[C@@H]2O[C@H]3[C@H](O)[C@@H](O)[C@@H](O[C@H]4[C@H](O)[C@@H](O)[C@@H](O[C@H]5[C@H](O)[C@@H](O)[C@@H](O[C@H]6[C@H](O)[C@@H](O)[C@@H](O[C@H]7[C@H](O)[C@@H](O)[C@@H](O[C@H]8[C@H](O)[C@@H](O)[C@@H](O[C@H]1[C@H](O)[C@H]2O)O[C@@H]8CO)O[C@@H]7CO)O[C@@H]6CO)O[C@@H]5CO)O[C@@H]4CO)O[C@@H]3CO [β-Cyclodextrin]	0.45 ± 0.0
OC[C@H]1O[C@@H](O)[C@H](O)[C@H](O)[C@@H]1O [β-D-Allose]	0.08 ± 0.00
CC(O)CC(=O)O (stereo not drawn) [β-Hydroxy Butyric Acid]	0.03 ± 0.05
CO[C@@H]1OC[C@@H](O)[C@H](O)[C@H]1O [β-Methyl-D-Xyloside]	0.10 ± 0.11

same assay, conditions: Biolog plate compound, exact concentration unknown; binder; Δ Tm

Structure (SMILES)	Δ Tm [°C]
O=C(O)[C@@H](O)[C@H](O)C(=O)O [D-Tartaric Acid]	0.10 ± 0.11
O=C(O)[C@H](O)[C@@H](O)C(=O)O [L-Tartaric Acid]	0.33 ± 0.29
